Tests used:
GFAP-GFP mice = assay: Striatal IL-1β brain inflammation model: neutrophil infiltration into brain (Ly6b immunohistochemistry); assay type: in vivo, mouse; details: 10 mg/kg IP 0.5 h before and 12 h after IL-1β; 24 h
Description: As we have previously shown[11],[18], striatal injection of IL-1β in mice expressing GFP-GFAP in astroglia triggers a release of GFP-labelled EVs that rapidly enter into plasma, resulting in cytokine upregulation in liver and peripheral immune cell migration into brain[11]. […] There were two groups of mice: the first group was sacrificed 2 h after IL-1β administration by heart puncture, and GFP-labeled circulating EVs were measured with liver cytokines. […] Counting of astrocyte-released EV (GFP+) from blood and liver cytokine analysis was conducted by single injection of DPTIP. […]
Compounds were given 0.5 h before IL-1β dosing. […] (C) Liver cytokine levels under different treatments as measured by qRT-PCR of RNA isolated from fresh frozen liver tissue. Samples were analyzed in triplicate. **p < 0.01 and *p < 0.05 compared to saline control; ^##p < 0.01 and ^#p < 0.05 compared to IL1-β group. (D) Neutrophil levels in brain as measured by immunohistochemistry using coronal brain sections and Ly6b antibody. (E) Quantitation of (D); **p < 0.01 compared to saline control; ^##p < 0.01 compared to IL1-β group.
Coronal brain sections (30 µm) were prepared using a cryostat microtome (Leica). […] Stereological quantitation was performed using a one-in-five series (270-µm spacing), from the rostral point of bregma +1.10 mm to the caudal point of bregma −0.58 mm as previously described.

[1] = In vivo pharmacokinetics, plasma and brain, 10 mg/kg IP; details: male, CD1, mouse, mice
Description: Pharmacokinetic studies in mice were approved by the Animal Care and Use Committee at Johns Hopkins University. Male CD1 mice between 25 and 30 g were obtained from Harlan and maintained on a 12 h light−dark cycle with ad libitum access to food and water. Test compounds were dosed at 10 mg/kg IP at a dosing volume of 10 mL/kg. Blood and brain tissue were collected at 0.25, 0.5, 1, 2, 4 and 6 h post dose (n = 3 per time point). Blood was obtained via cardiac puncture and plasma was harvested from blood by centrifugation at 3000 × g for 15 min and stored at −80 °C. Brain tissues were harvested following blood collection and immediately snap frozen in liquid nitrogen and stored at −80 °C until LC−MS analysis. […] The samples were vortex mixed for 30 secs and centrifuged at 10000 × g for 10 min at 4 °C. Fifty microliter of the supernatant was diluted with 50 µL water and transferred to a 250 µL polypropylene vial sealed with a Teflon cap and analyzed via LC/MS/MS as described above. Plasma concentrations (pmol/mL) as well as tissue concentrations (pmol/g) were determined and plots of mean plasma concentration versus time were constructed for PK analysis. Non-compartmental-analysis modules in Phoenix WinNonlin version 7.0 (Certara USA, Inc., Princeton, NJ) were used to assess pharmacokinetic parameters including maximal concentration (Cmax), time to Cmax (Tmax), and area under the curve extrapolated to infinity (AUC0-∞).

acid sphingomyelinase = target: T1, acid sphingomyelinase (Homo sapiens, UniProt P17405); assay: Acid sphingomyelinase inhibition (results not shown); assay type: biochemical
T1 sequence (P17405 47-631): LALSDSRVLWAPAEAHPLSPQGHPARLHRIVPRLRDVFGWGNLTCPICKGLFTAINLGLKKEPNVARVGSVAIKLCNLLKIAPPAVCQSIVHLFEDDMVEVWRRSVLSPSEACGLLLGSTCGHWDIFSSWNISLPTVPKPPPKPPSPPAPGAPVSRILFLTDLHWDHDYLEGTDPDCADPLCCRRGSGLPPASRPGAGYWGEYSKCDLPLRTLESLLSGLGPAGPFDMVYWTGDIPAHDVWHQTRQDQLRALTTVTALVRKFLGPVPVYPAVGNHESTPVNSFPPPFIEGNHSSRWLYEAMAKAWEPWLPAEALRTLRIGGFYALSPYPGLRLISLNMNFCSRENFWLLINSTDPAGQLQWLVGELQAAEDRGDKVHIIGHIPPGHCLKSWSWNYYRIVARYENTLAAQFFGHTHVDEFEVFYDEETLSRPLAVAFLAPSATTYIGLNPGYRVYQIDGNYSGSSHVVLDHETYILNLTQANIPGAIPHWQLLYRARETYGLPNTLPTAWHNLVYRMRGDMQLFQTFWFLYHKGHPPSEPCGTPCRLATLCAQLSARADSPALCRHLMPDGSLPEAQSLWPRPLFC

Rat primary astrocytes = assay: Astrocyte activation, GFAP immunofluorescence (+/-) serum deprivation; assay type: cell-based; details: 10 μM, 2 h
Description: Independent laboratories have shown that pharmacological and genetic inhibition of nSMase2 blocks EV secretion from glial cells. […] Two hours after treatment, EVs were isolated from the media and quantified by nanoparticle tracking analysis. […] Cells were fixed and immunofluorescence labeling for GFAP was performed.
Media was collected after 2 h incubation and centrifuged at 2700 × g for 15 min at 4 °C. Supernatant was collected and the number of extracellular vesicles (EVs) was quantified using ZetaView Nanoparticle Tracker. The mean concentration of EVs/mL (±SEM) was calculated from 4 replicate experiments. […] Astrocytes grown in complete medium were used as no treatment control. Cells were fixed and stained with anti-GFAP antibody (1:500, Sigma). Fluorescence intensity was measured using Image J. (C) Quantitation of fluorescence in (B). Bar graph represents background corrected mean fluorescence intensity measured from 100 astrocytes per condition. Error bars represent standard error of mean. One-way ANOVA followed by Tukey’s posthoc test was performed.

[2] = Metabolic stability in mouse liver microsomes with NADPH; assay type: in vitro ADME; details: pH 7.4, 1 μM compound, read-out: percent remaining
Description: One potential liability when using chemical probes in vivo is lack of metabolic stability which structurally inactivates the compound before it can reach its molecular target. […] Percent of drug remaining over time was determined by liquid chromatography–tandem mass spectrometry analysis (LC/MS/MS).
Metabolic stability assay was conducted in mouse or human liver microsomes as we have described previously with minor modifications. Briefly, the reaction was carried out using potassium phosphate buffer (100 mM, pH 7.4), in the presence of an NADPH regenerating system (compound final concentration was 1 μM; 0.2 mg/mL microsomes). Compound disappearance was monitored over time using a liquid chromatography and tandem mass spectrometry (LC/MS/MS) method. Chromatographic analysis was performed using an Accela ultra high-performance system consisting of an analytical pump and an autosampler coupled with a TSQ Vantage mass spectrometer (Thermo Fisher Scientific Inc., Waltham, MA). […] The mobile phase consisted of 0.1% formic acid in acetonitrile and 0.1% formic acid in water with gradient elution.

For `COc1cc(-c2nc(-c3cccs3)c(-c3ccccc3)[nH]2)cc(OC)c1O` [DPTIP, 2,6-Dimethoxy-4-(5-Phenyl-4-Thiophen-2-yl-1H-Imidazol-2-yl)-Phenol], the “reduction of neutrophil migration into brain compared to IL-1β-treated animals” value (GFAP-GFP mice) was 80 ± 23%, the Kp ([1]; brain and plasma, read-out: AUCbrain/AUCplasma) was 0.26 and the AUC(0-inf) ([1]; brain) was 2.6 ± 0.5 µM·h. For the same compound, the Tmax ([1]; brain) was 30 min, the AUC(0-inf) ([1]; plasma) was 10 ± 1 µM·h and the Tmax ([1]; plasma) was 30 min. The IC50 (acid sphingomyelinase) was over 100 µM, the “effect on GFAP levels without serum starvation” value (Rat primary astrocytes; no serum starvation) was “did not change GFAP levels” and the “effect on astrocyte activation (GFAP) in response to serum starvation” value (Rat primary astrocytes; with serum deprivation) was “prevented astrocyte activation”. It also gave a remaining at 1 h, 1 μM [2] of 100%.
